# Reference: US20160159814A1, “GLYCINE TRANSPORTER INHIBITOR” (TAISHO PHARMACEUTICAL CO., LTD., priority 2013, published 2016)
# Target: T1, human type 1 glycine transporter (GlyT1) (Homo sapiens, UniProt P48067)
# T1 construct: T98G cells (glioma cells) expressing human type 1 glycine transporter (GlyT1) were used; endogenous in cells; host or cells: T98G cells (human glioma cells)
# T1 sequence (P48067 1-706): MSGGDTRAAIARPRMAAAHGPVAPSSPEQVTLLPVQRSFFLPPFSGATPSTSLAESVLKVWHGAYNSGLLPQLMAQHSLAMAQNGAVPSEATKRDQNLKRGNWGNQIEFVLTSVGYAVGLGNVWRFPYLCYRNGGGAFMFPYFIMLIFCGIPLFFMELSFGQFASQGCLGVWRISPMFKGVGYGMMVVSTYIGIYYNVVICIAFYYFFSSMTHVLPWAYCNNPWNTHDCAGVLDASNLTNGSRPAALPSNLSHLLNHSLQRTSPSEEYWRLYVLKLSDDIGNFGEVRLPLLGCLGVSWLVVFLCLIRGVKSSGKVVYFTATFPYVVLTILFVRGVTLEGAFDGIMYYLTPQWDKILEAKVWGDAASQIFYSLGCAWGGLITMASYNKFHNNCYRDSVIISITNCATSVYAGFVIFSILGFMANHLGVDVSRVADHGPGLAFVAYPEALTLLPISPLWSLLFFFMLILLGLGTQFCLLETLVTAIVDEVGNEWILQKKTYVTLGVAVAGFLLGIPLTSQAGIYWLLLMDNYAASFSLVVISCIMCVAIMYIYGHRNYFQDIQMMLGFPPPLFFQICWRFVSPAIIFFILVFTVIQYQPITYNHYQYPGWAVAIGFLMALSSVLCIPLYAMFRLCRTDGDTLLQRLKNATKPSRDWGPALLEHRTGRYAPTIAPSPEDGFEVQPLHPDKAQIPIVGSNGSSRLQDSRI
# Assay: Glycine uptake inhibition experiment ([3H] glycine uptake in T98G cells expressing GlyT1)
# Format: cell-based
# Details: not given
# Experimental: Glycine Uptake Inhibition Experiment
# A glycine uptake experiment was conducted in accordance with the method published in Neuron, 8, 927-935, 1992. In the experiment, T98G cells (glioma cells) expressing human type 1 glycine transporter (GlyT1) were used. The T98G cells were seeded in a 96-well plate at 2.0×10^4 cells/well and cultured overnight in a CO2 incubator. The test substance was dissolved in a 100% DMSO solution and then dissolved in a 10 mM HEPES buffer solution (pH 7.4) containing 150 mM sodium chloride, 1 mM calcium chloride, 5 mM potassium chloride, 1 mM magnesium chloride, 10 mM glucose and 0.2% bovine serum albumin. After removing the cell culture medium, the test substance was subjected to a 10-min pretreatment. Subsequently, the test substance and [^3H] glycine (final concentration: 250 nM) were added to the cells and reaction was performed at room temperature for 15 minutes. After the end of the reaction, the extracellular fluid was aspirated with a manifold to remove excess labeled glycine present outside the cells, and then the cells were lysed with a 0.5 M aqueous sodium hydroxide solution. The glycine content in the cells was determined by measuring the radioactivity in the cell lysate with a liquid scintillation counter. Glycine uptake in the presence of 10 μM ALX5407 was defined as non-specific uptake, and the value calculated by subtracting the amount of the non-specific uptake from the total uptake in the absence of 10 μM ALX5407 was defined as specific uptake. In addition, glycine uptake inhibitory activity (IC50 value) was calculated from an inhibition curve at the concentrations of each test substance ranging from 10^−9 to 10^−5 M. It should be noted that ALX5407 is an HCl salt of N-[(3R)-3-([1,1′-biphenyl]-4-yloxy)-3-(4-fluorophenyl)propyl]-N-methylglycine.
row,IC50,Structure (SMILES)
1,480 nM,"O=C1N(Cc2cncc(C3CC3)c2)c2cccc(C(O)C(F)F)c2C1(F)F (single isomer, unassigned) [Compound 179, 1-[(5-cyclopropylpyridin-3-yl)methyl]-4-(2,2-difluoro-1-hydroxyethyl)-3,3-difluoro-1,3-dihydro-2H-indol-2-one]"
2,53 nM,"O=C1N(Cc2ccnc(C3CC3)c2)c2cccc(C(O)C(F)F)c2C1(F)F (single isomer, unassigned) [Compound 180, 1-[(2-cyclopropylpyridin-4-yl)methyl]-4-(2,2-difluoro-1-hydroxyethyl)-3,3-difluoro-1,3-dihydro-2H-indol-2-one]"
3,64 nM,"O=C1N(Cc2cncc(C(F)(F)F)c2)c2cccc(C(O)C(F)F)c2C1(F)F (single isomer, unassigned) [Compound 186, 4-(2,2-difluoro-1-hydroxyethyl)-3,3-difluoro-1-{[5-(trifluoromethyl)pyridin-3-yl]methyl}-1,3-dihydro-2H-indol-2-one]"
4,29 nM,"O=C1N(Cc2ccnc(C(F)(F)F)c2)c2cccc(C(O)C(F)F)c2C1(F)F (single isomer, unassigned) [Compound 191, 4-(2,2-difluoro-1-hydroxyethyl)-3,3-difluoro-1-{[2-(trifluoromethyl)pyridin-4-yl]methyl}-1,3-dihydro-2H-Indol-2-one]"
5,10 nM,"O=C1N(Cc2ccnc(OC(F)F)c2)c2cccc(C(O)C(F)F)c2C1(F)F (single isomer, unassigned) [Compound 218, 4-(2,2-difluoro-1-hydroxyethyl)-1-{[2-(difluoromethoxy)pyridin-4-yl]methyl}-3,3-difluoro-1,3-dihydro-2H-indol-2-one]"
6,69 nM,"COc1ccc(CN2C(=O)C(F)(F)c3c(C(O)C(F)F)cccc32)cn1 (single isomer, unassigned) [Compound 255, 4-(2,2-difluoro-1-hydroxyethyl)-3,3-difluoro-1-[(6-methoxypyridin-3-yl)methyl)-1,3-dihydro-2H-indol-2-one]"
7,9.6 nM,"COc1cccc(CN2C(=O)C(F)(F)c3c(C(O)C(F)F)cccc32)n1 (single isomer, unassigned) [Compound 256, 4-(2,2-difluoro-1-hydroxyethyl)-3,3-difluoro-1-[(6-methoxypyridin-2-yl)methyl)-1,3-dihydro-2H-indol-2-one]"

# More lines, now with the values behind:
row,Structure (SMILES),IC50
1,"CC(O)c1c(F)ccc2c1C(F)(F)C(=O)N2Cc1cncc(Cl)c1 (single isomer, unassigned) [Compound 181, 1-[(5-chloropyridin-3-yl)methyl]-3,3,5-trifluoro-4-(1-hydroxyethyl)-1,3-dihydro-2H-indol-2-one]",310 nM
2,"CC(O)c1c(F)ccc2c1C(F)(F)C(=O)N2Cc1ccnc(C#N)c1 (single isomer, unassigned) [Compound 182, 4-{[3,3,5-trifluoro-4-(1-hydroxyethyl)-2-oxo-2,3-dihydro-1H-indol-1-yl]methyl}pyridine-2-carbonitrile]",1700 nM
3,"CC(O)c1c(F)ccc2c1C(F)(F)C(=O)N2Cc1cncc(Cl)c1 (single isomer, unassigned) [Compound 183, 1-[(5-chloropyridin-3-yl)methyl]-3,3,5-trifluoro-4-(1-hydroxyethyl)-1,3-dihydro-2H-indol-2-one]",6.7 nM
4,"CC(O)c1c(F)ccc2c1C(F)(F)C(=O)N2Cc1ccnc(C#N)c1 (single isomer, unassigned) [Compound 184, 4-{(3,3,5-trifluoro-4-(1-hydroxyethyl)-2-oxo-2,3-dihydro-1H-indol-1-yl]methyl}pyridine-2-carbonitrile]",95 nM
5,"N#Cc1cc(CN2C(=O)C(F)(F)c3c(C(O)C(F)F)cccc32)c(F)cn1 (single isomer, unassigned) [Compound 219, 4-{[4-(2,2-difluoro-1-hydroxyethyl)-3,3-difluoro-2-oxo-2,3-dihydro-1H-indol-1-yl]methyl)-5-fluoropyridine-2-carbonitrile]",180 nM
6,"N#Cc1cc(CN2C(=O)C(F)(F)c3c(C(O)C(F)F)cccc32)c(Cl)cn1 (single isomer, unassigned) [Compound 220]",170 nM
7,"O=C1N(Cc2cncc(Cl)c2)c2c(F)ccc(C(O)C(F)F)c2C1(F)F (single isomer, unassigned) [Compound 253, 1-[(5-chloropyridin-3-yl)methyl]-4-(2,2-difluoro-1-hydroxyethyl)-3,3,7-trifluoro-1,3-dihydro-2H-indol-2-one]",47 nM
8,"O=C1N(Cc2cncc(Cl)c2)c2c(F)ccc(C(O)C(F)F)c2C1(F)F (single isomer, unassigned) [Compound 254, 1-[(5-chloropyridin-3-yl)methyl]-4-(2,2-difluoro-1-hydroxyethyl)-3,3,7-trifluoro-1,3-dihydro-2H-indol-2-one]",6800 nM

# Same assay, conditions: table section whose head prints (μm)
row,IC50,Structure (SMILES)
1,120 nM,"O=C1N(Cc2cncc(OC(F)F)c2)c2cccc(C(O)C(F)F)c2C1(F)F (single isomer, unassigned) [Compound 258, 4-(2,2-difluoro-1-hydroxyethyl)-1-{[5-(difluoromethoxy)pyridin-3-yl]methyl}-3,3-difluoro-1,3-dihydro-2H-indol-2-one]"
2,1500 nM,"O=C1N(Cc2cnccc2Cl)c2cccc(C(O)C(F)F)c2C1(F)F (single isomer, unassigned) [Compound 260, 1-[(4-chloropyridin-3-yl)mettiyl]-4-(2,2-difluoro-1-hydroxyethyl)-3,3-difluoro-1,3-dihydro-2H-indol-2-one]"
3,170 nM,"N#Cc1cc(CN2C(=O)C(F)(F)c3c(C(O)C(F)F)cccc32)cc(Cl)n1 (single isomer, unassigned) [Compound 264, 6-chloro-4-{[4-(2,2-difluoro-1-hydroxyethyl)-3,3-difluoro-2-oxo-2,3-dihydro-1H-indol-1-yl]methyl}pyridine-2-carbonitrile]"
4,21 nM,"O=C1N(Cc2cc(Cl)c(F)cn2)c2cccc(C(O)C(F)F)c2C1(F)F (single isomer, unassigned) [Compound 266, 1-[(4-chloro-5-fluoropyridin-2-yl)methyl]-4-(2,2-difluoro-1-hydroxyethyl)-3,3-difluoro-1,3-dihydro-2H-indol-2-one]"

# The next lines start with the compound.
row,Structure (SMILES),IC50
1,"O=C1N(Cc2cccc(C(F)(F)F)n2)c2cccc(C(O)C(F)F)c2C1(F)F (single isomer, unassigned) [Compound 257, 4-(2,2-difluoro-1-hydroxyethyl)-3,3-difluoro-1-{[6-(trifluoromethyl)pyridin-2-yl]methyl)-1,3-dihydro-2H-indol-2-one]",110 nM
2,"N#Cc1cccnc1CN1C(=O)C(F)(F)c2c(C(O)C(F)F)cccc21 (single isomer, unassigned) [Compound 259, 2-{[4-(2,2-difluoro-1-hydroxyethyl)-3,3-difluoro-2-oxo-2,3-dihydro-1H-indol-1-yl]methyl}pyridine-3-carbonitrile]",1900 nM
3,"O=C1N(Cc2ccc(F)c(Cl)n2)c2cccc(C(O)C(F)F)c2C1(F)F (single isomer, unassigned) [Compound 263, 1-[(6-chloro-5-fluoropyridin-2-yl)methyl]-4-(2,2-difluoro-1-hydroxyethyl)-3,3-difluoro-1,3-dihydro-2H-indol-2-one]",11 nM
4,"COc1nc(CN2C(=O)C(F)(F)c3c(C(O)C(F)F)cccc32)ccc1F (single isomer, unassigned) [Compound 265, 4-(2,2-difluoro-1-hydroxyethyl)-3,3-difluoro-1-[(5-fluoro-6-methoxypyridin-2-yl)methyl]-1,3-dihydro-2H-indol-2-one]",930 nM
